# In US20160264935A1, “TRANSFORMED HUMAN PLURIPOTENT STEM CELLS AND ASSOCIATED METHODS” (McMaster University, priority 2009, published 2016):
# Counter-ions that a name gives are not always drawn.
# What was measured:
# [1] = test system: t-hPSCs that contain an Oct4-GFP reporter gene; experiment: Screen of 300 compounds for inducers of stem cell differentiation (Oct4-GFP/Hoechst ratio); format: cell-based, human; conditions: 72 hours after exposure; fluorescence plate reader
# From the text: FIG. A: identification of inducers of stem cell differentiation. 300 compounds were screened to detect the fluorescence emitted from the Oct4-GFP reporter expressed in transformed cells and normalized to the relative cell nuclear number as defined by Hoechst staining. GFP/Hoechst ratios below zero, the threshold defined by BMP4 (a known stem cell differentiator), are considered potent inducers of stem cells differentiation. FIGS. B-C: the frequency of Oct4+ human iPS cells measured using flow cytometry following 7 days of treatment with Mefloquine (MEFLO) or thioridazine (THIO) compared to culture media (MEFCM) and culture media supplemented with DMSO (DMSO). […] FIGS. 1D-E: Measurements of cell viability using trypan blue on human mobilized peripheral blood treated with mefloquine or thioridazine for 5 days. […]
# Plates containing the cells were analyzed 72 hours after exposure to the compounds using a fluorescence plate reader capable of detecting the fluorescence emitted from the Oct4-GFP reporter expressed in transformed cells and normalized to the relative cell nuclear number as defined by Hoechst staining. […]
# [2] = test system: human mobilized peripheral blood; experiment: Cell viability by trypan blue exclusion; format: cell-based; conditions: 0.1-10 μM, 5 days
# Procedure: FIGS. 1D-E: Measurements of cell viability using trypan blue on human mobilized peripheral blood treated with mefloquine or thioridazine for 5 days. […] In order to further investigate the compounds identified by the screen, mefloquine and thioridazine were used to treat human mobilized peripheral blood for 5 days. Cell viability was measured using trypan blue exclusion.
# human iPS cells = experiment: Frequency of Oct4+ cells by flow cytometry; format: cell-based; conditions: 7 days of treatment; compared to MEFCM and DMSO
# From the text: FIG. A: identification of inducers of stem cell differentiation. 300 compounds were screened to detect the fluorescence emitted from the Oct4-GFP reporter expressed in transformed cells and normalized to the relative cell nuclear number as defined by Hoechst staining. GFP/Hoechst ratios below zero, the threshold defined by BMP4 (a known stem cell differentiator), are considered potent inducers of stem cells differentiation. FIGS. B-C: the frequency of Oct4+ human iPS cells measured using flow cytometry following 7 days of treatment with Mefloquine (MEFLO) or thioridazine (THIO) compared to culture media (MEFCM) and culture media supplemented with DMSO (DMSO). […] FIGS. 1D-E: Measurements of cell viability using trypan blue on human mobilized peripheral blood treated with mefloquine or thioridazine for 5 days. […] Mefloquine (MEFLO) and thioridazine (THIO) were then tested in human iPS cells. Following 7 days of treatment, the frequency of Oct4+ cells were measured using flow cytometry and compared to culture media (MEFCM) and culture media supplemented with DMSO (DMSO) as a vehicle to augment compound solubility.
# [3] = test system: transformed stem cells (Oct4-GFP); experiment: High Content Screening of Oct4-GFP expression (ArrayScan HCS reader); format: cell-based, human
# Procedure: At day 2 and 3 BMP4 was added to each of the treated wells at various concentrations. On day 4 microtiter plates containing treated transformed stem cells were imaged using the cellomics ArrayScan HCS reader (Thermofisher). Oct4-GFP expression was shown in green while cell nuclei are shown in blue (Hoescht 33342). A) No BMP untreated control.
# Cells were grown as described in FIG. 9 with the exception of the addition of BMP4 which was replaced by DMSO at multiple concentrations as described in the Figure legends. DMSO is a chemical compound used in drug studies as a solvent which is known to induce stem cell differentiation. On day 5, after cell seeding and culture, microtiter plates were imaged using the ArrayScan HCS reader (Thermofisher). […] D) Cell numbers were quantified based on the automated detection and segregation of cells labelled by the nuclear dye Hoescht. […] All images were analyzed using the Cellomics software.
# Transformed stem cells were seeded as single cells and grown in culture using standard stem cell culture conditions for 4 days. […] On day 4 microtiter plates containing treated transformed stem cells were imaged using the cellomics ArrayScan HCS reader (Thermofisher). […]
# Due to image analysis limitations similar data could not be obtained when normal cells were used for the assays. […] All images were analyzed using the Cellomics software.
# [4] = test system: transformed pluripotent stem cells with EOS Oct4-GFP reporter; experiment: High throughput plate reader screen for loss of pluripotency (Oct4-Alexa 647 antibody and GFP); format: cell-based, human; conditions: 1, 10, 100 ng/mL BMP4 for 4 days, n=3
# Procedure: Transformed pluripotent stem cells were passaged as single cells using Trypsin and seeded at 1000 cells per well into 96 well optical imaging plates coated with Matrigel ® containing 100 ul mouse embryonic fibroblast conditioned media (MEF-CM). Plates were incubated at 37 degrees for 24 Hr before treatment with bone morphogenic protein 4 (BMP4) commenced. Cells were treated with either 1 ng/mL, 10 ng/mL, 100 ng/mL, or 0 ng/mL BMP4 for 4 days (n=3). After 4 days cells were fixed with 2% paraformaldehyde and stained with Oct4-Alexa 647 antibody. Cells were loaded into a plate reader and measured at excitation emission pairs of 650/665 and 488/520 nm to measure Oct4-Alexa 647 antibody (top graph) and GFP (bottom graph) respectively. Pluripotency (measured by the loss of OCT4 and GFP expression) decreased with the increase in differentiation inducing compound BMP4. Similar results were obtained when other compounds were tested. […]
# The versatility of transformed human pluripotent stem cells is illustrated by the multiple types of assays that it enables. […] Cells were loaded into a plate reader and measured at excitation emission pairs of 650/665 and 488/520 nm to measure Oct4-Alexa 647 antibody (FIG. 7 top graph) and GFP (FIG. 7 bottom graph) respectively. Pluripotency (measured by the loss of OCT4 and GFP expression) decreased with the increase in differentiation inducing compound BMP4. […]
# [5] = test system: transformed pluripotent stem cells that contain an Oct4-GFP reporter; experiment: Microscope imaging of Oct4 antibody staining and GFP after BMP-4 treatment; format: cell-based, human; conditions: increased amounts of BMP-4, 4 days; microscope images
# Procedure: Transformed pluripotent stem cells that contain an Oct4-GFP reporter were plated, cultured, treated with BMP-4 and fixed as described in FIG. 7. Cells were permeabilized with 0.1% TritonX-100 and stained with Oct4 antibody conjugated with Alexa 647. The cell nuclei were stained with Hoechst 33342. Images were collected using 10× objective on Olympus microscope, and analysed using Image-Pro Plus software.
# Cells were permeabilized with 0.1% TritonX-100 and stained with Oct4 antibody conjugated with Alexa 647. The cell nuclei were stained with Hoechst 33342. Images were collected using 10× objective on Olympus microscope, and analysed using Image-Pro Plus software.
compound,measurement,setting,value
CSc1ccc2c(c1)N(CCC1CCCCN1C)c1ccccc1S2 (centres unmarked) [Thioridazine HCl],"Induction of t-hPSC differentiation (GFP/Hoechst ratio below zero, the threshold defined by BMP4)",[1],potent inducers of t-hPSCs differentiation
same,Cell viability relative to control samples (0 μM),[2],did not reduce cell viability
same,Frequency of Oct4+ cells,human iPS cells,decrease
bone morphogenic protein 4 [BMP4],Oct4-GFP expression,"[3]; BMP4 added at day 2 and 3, imaged day 4",significant loss of GFP expression
same,Pluripotency (measured by the loss of OCT4 and GFP expression),[4],decreased
same,GFP fluorescence (Oct4-GFP reporter),[5],decreased GFP fluorescence
same,Oct-4 antibody staining,[5],decreased Oct-4 antibody staining
C[S+](C)[O-] [DMSO],Oct4-GFP expression,"[3]; DMSO 0%, 0.01%, 2% (v/v) for 4 consecutive days, imaged day 5",decreasing expression levels of GFP
OC(c1cc(C(F)(F)F)nc2c(C(F)(F)F)cccc12)C1CCCCN1 (centres unmarked) [Mefloquine HCl],"Induction of t-hPSC differentiation (GFP/Hoechst ratio below zero, the threshold defined by BMP4)",[1],potent inducers of t-hPSCs differentiation
same,Cell viability relative to control samples (0 μM),[2],did not reduce cell viability
same,Frequency of Oct4+ cells,human iPS cells,decrease
